Measurements taken from US20160355483A1, “COMPOUND BINDING TO PPARG BUT NOT ACTING AS PROMOTER AND PHARMACEUTICAL COMPOSITION FOR TREATING PPARG-RELATED DISEASES CONTAINING SAME AS ACTIVE INGREDIENT” (Hyundai Pharm Co., Ltd., priority 2014, published 2016).

Each molecule was assayed against T1, PPARG (peroxisome proliferator activated receptor-gamma), GST-PPARG-LBD (Homo sapiens, UniProt P37231) (assay: LanthaScreen TR-FRET PPARG Competitive Binding Assay). Conditions: degree of binding activity.
T1 construct: 15 μL of 5 nM GST-PPARG-LBD and 5 nM Tb-GST-antibody were added; purchased Invitrogen PV4894
T1 sequence (P37231 238-503 limits assumed): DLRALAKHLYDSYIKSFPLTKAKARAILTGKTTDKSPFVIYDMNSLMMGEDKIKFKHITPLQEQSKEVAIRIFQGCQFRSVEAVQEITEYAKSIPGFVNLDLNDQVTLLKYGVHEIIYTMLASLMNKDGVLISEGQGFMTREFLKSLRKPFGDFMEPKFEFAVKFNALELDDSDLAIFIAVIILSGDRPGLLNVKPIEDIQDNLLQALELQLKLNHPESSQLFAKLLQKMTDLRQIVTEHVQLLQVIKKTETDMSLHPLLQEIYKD
Design: key: “+” indicates the degree of the binding activity, and as the number of “+” increases, the binding activity is stronger; ++: “+” indicates the degree of the binding activity, and as the number of “+” increases, the binding activity is stronger; +++: “+” indicates the degree of the binding activity, and as the number of “+” increases, the binding activity is stronger; ++++: “+” indicates the degree of the binding activity, and as the number of “+” increases, the binding activity is stronger
How it was run: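 Ratio of 518 nm to 488 nm time-resolved emission after a 1 h room-temperature incubation, in competition format with GST-PPARG ligand-binding domain. Values are expressed as 100% minus compound-to-vehicle ratio and related to rosiglitazone binding.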
NC(=O)c1ccccc1-c1ccc(CN2CCOc3cc(C(=O)NCc4ccncc4)ccc32)cc1 [Example 98, 4-((2′-carbamoyl-[1,1′-biphonyl]-4-yl)methyl)-N-(pyridine-4-ylmethyl)-3,4-dihydro-2H-benzo[b][1,4]oxazine-7-carboxamide] was tested, and the “Binding assay (1 μLM)” value was “+”.
C[C@H](NC(=O)c1ccc2c(c1)OCCN2Cc1ccc(-c2ccccc2C(N)=O)cc1)c1ccc(SC(F)(F)F)cc1 [Example 99, (S)-4-((2′-carbamoyl-[1,1′-biphenyl]-4-yl)methyl)-N-(1-(4-((trifluoromethyl)thio)phenyl)ethyl)-3,4-dihydro-2H-benzo[b][1,4]oxazine-7-carboxamide] was tested, and the “Binding assay (1 μLM)” value was “+++”.
In the case of NC(=O)c1ccccc1-c1ccc(CN2CCOc3cc(C(=O)NCc4ccccc4)ccc32)cc1 [Example 100, N-benzyl-4-((2′-carbamoyl-[1,1′-biphenyl]-4-yl)methyl)-3,4-dihydro-2H-benzo[b][1,4]oxazine-7-carboxamide], the “Binding assay (1 μLM)” value is reported as “++”.
NC(=O)c1ccccc1-c1ccc(CN2CCOc3cc(C(=O)NCc4ccccc4Br)ccc32)cc1 [Example 101, N-(2-bromobenzyl)-4-((2′-carbamoyl-[1,1′-biphenyl]-4-yl)methyl)-3,4-dihydro-2H-benzo[b][1,4]oxazine-7-carboxamide] was tested, and the “Binding assay (1 μLM)” value was “++”.
For NC(=O)c1ccccc1-c1ccc(CN2CCOc3cc(C(=O)NCc4ccc5c(c4)OCCO5)ccc32)cc1 [Example 102, 4-((2′-carbamoyl-[1,1′-biphenyl]-4-yl)methyl)-N-((2,3-dihydrobenzo[b][1,4]dioxin-6-yl)methyl)-3,4-dihydro-2H-benzo[b][1,4]oxazine-7-carboxamide], the “Binding assay (1 μLM)” value was “+”.
With C[C@H](NC(=O)c1ccc2c(c1)OCCN2Cc1ccc(-c2ccccc2C(=O)[O-])cc1)c1ccccc1.[Na+] [Example 103, sodium (S)-4′-((7-((1-phenylethyl)carbamoyl)-2H-benzo[b][1,4]oxazine-4(3H)-yl)methyl)-[1,1′-biphenyl]-2-carboxylate] the “Binding assay (1 μLM)” value was “++”.
With C[C@H](NC(=O)c1ccc2c(c1)OCCN2Cc1ccc(-c2ccccc2C(=O)[O-])cc1)c1ccc([N+](=O)[O-])cc1.[Na+] [Example 105, sodium (S)-4′-((7-((1-(4-nitrophenyl)ethyl)carbamoyl)-2-benzo[b][1,4]oxazine-4(3H)-yl)methyl)-[1,1′-biphenyl]-2-carboxylate] the “Binding assay (1 μLM)” value was “+”.
C[C@H](NC(=O)c1ccc2c(c1)CCCN2Cc1ccc(-c2ccccc2C(=O)O)cc1F)c1ccccc1 [Example 106] was tested, and the “Binding assay (1 μLM)” value was “++++”.
C[C@H](NC(=O)c1ccc2c(c1)CCCN2Cc1ccc(-c2ccccc2C(N)=O)cc1F)c1ccccc1 [Example 107, (S)-1-((2′-carbamoyl-3-fluoro-[1,1′-biphenyl]-4-yl)methyl)-N-(1-phenylethyl)-1,2,3,4-tetrahydroquinoline-6-carboxamide] was tested, and the “Binding assay (1 μLM)” value was “+++”.
With C[C@H](NC(=O)c1ccc2c(c1)CCCN2Cc1ccc(-c2ccccc2C(=O)O)cc1F)c1ccc2ccccc2c1 [Example 108, (S)-3′-fluoro-4′-((6-((1-(naphthalene-2-yl)ethyl)carbamoyl)-3,4-dihydroquinoline-1(28)-yl)methyl)-[1,1′-biphenyl]-2-carboxylic acid] the “Binding assay (1 μLM)” value was “++++”.
In the case of C[C@H](NC(=O)c1ccc2c(c1)CCCN2Cc1ccc(-c2ccccc2C(=O)O)cc1F)c1ccc([N+](=O)[O-])cc1 [Example 109, (S)-3′-fluoro-4′-((6-((1-(4-nitrophenyl)ethyl)carbamoyl)-3,4-dihydroquinoline-1(2H)-yl)methyl)-[1,1′-biphenyl]-2-caboxylic acid], the “Binding assay (1 μLM)” value is reported as “+++”.
With Cc1ccc([C@H](C)NC(=O)c2ccc3c(c2)CCCN3Cc2ccc(-c3ccccc3C(=O)O)cc2F)cc1F [Example 111, (S)-3′-fluoro-4′-((6-((1-(3-fluoro-4-methylphenyl)ethyl)carbamoyl)-3,4-dihydroquinoline-1(2H)-yl)methyl)-[1,1′-biphenyl]-2-caboxylic acid] the “Binding assay (1 μLM)” value was “++++”.
In the case of C[C@H](NC(=O)c1ccc2c(c1)CCCN2Cc1ccc(-c2ccccc2C(N)=O)cc1F)c1ccc(C#N)cc1 [Example 112, (S)-1-((2′-carbamoyl-3-fluoro-[1,1′-biphenyl]-4-yl)methyl)-N-(1-(4-cyanophenyl)ethyl)-1,2,3,4-tetrahydroquinoline-6-carboxamide], the “Binding assay (1 μLM)” value is reported as “+++”.
For Cc1ccc([C@H](C)NC(=O)c2ccc3c(c2)CCCN3Cc2ccc(-c3ccccc3C(N)=O)cc2F)cc1F [Example 114, (S)-1-((2′-carbamoyl-3-fluoro-[1,1′-biphenyl]-4-yl)methyl)-N-(1-(3-fluoro-4-methylphenyl)ethyl)-1,2,3,4-tetrahydroquinoline-6-carboxamide], the “Binding assay (1 μLM)” value was “+++”.
For C[C@H](NC(=O)c1ccc2c(c1)CCCN2Cc1cccc(-c2ccccc2C(=O)O)c1)c1ccccc1 [Example 116, (S)-3′-((6-((1-phenylethyl)carbamoyl)-3,4-dihydroquinoline-1(2H)-yl)methyl)-[1,1′-biphenyl]-2-carboxylic acid], the “Binding assay (1 μLM)” value was “+++”.
C[C@H](NC(=O)c1ccc2c(c1)CCCN2Cc1cccc(-c2ccccc2C(N)=O)c1)c1ccccc1 [Example 117, (S)-1-((2′-carbamoyl-[1,1′-biphenyl]-3-yl)methyl)-N-(1-phenylethyl)-1,2,3,4-tetrahydroquinoline-6-carboxamide] was tested, and the “Binding assay (1 μLM)” value was “+++”.
In the case of C[C@H](NC(=O)c1ccc2c(c1)CCCN2Cc1cccc(-c2ccccc2C(=O)O)c1)c1ccc([N+](=O)[O-])cc1 [Example 119, (S)-3′-((6-((1-(4-nitrophenyl)ethyl)carbamoyl)-3,4-dihydroquinoline-1(2H)-yl)methyl)-[1,1′-biphenyl]-2-carboxylic acid], the “Binding assay (1 μLM)” value is reported as “++”.
C[C@H](NC(=O)c1ccc2c(c1)CCCN2Cc1cccc(-c2ccccc2C(=O)O)c1)c1ccc2ccccc2c1 [Example 120, (S)-3′-((6-((1-(naphthalene-2-yl)ethyl)carbamoyl)-3,4-dihydroquinoline-1(2H)-yl)methyl)-[1,1′-biphenyl]-2-carboxylic acid] was tested, and the “Binding assay (1 μLM)” value was “++++”.
With Cc1ccc([C@H](C)NC(=O)c2ccc3c(c2)CCCN3Cc2cccc(-c3ccccc3C(=O)O)c2)cc1F [Example 121, (S)-3′-((6-((1-(3-fluoro-4-methylphenyl)ethyl)carbamoyl)-3,4-dihydroquinoline-1(2H)-yl)methyl)-[1,1′-biphenyl]-2-carboxylic acid] the “Binding assay (1 μLM)” value was “+++”.
C[C@H](NC(=O)c1ccc2c(c1)CCCN2Cc1cccc(-c2ccccc2C(N)=O)c1)c1ccc(C#N)cc1 [Example 122, (S)-1-((2′-carbamoyl-[1,1′-biphenyl]-3-yl)methyl)-N-(1-(4-cyanophenyl)ethyl)-1,2,3,4-tetrahydroquinoline-6-carboxamide] was tested, and the “Binding assay (1 μLM)” value was “++”.
In the case of C[C@H](NC(=O)c1ccc2c(c1)CCCN2Cc1cccc(-c2ccccc2C(N)=O)c1)c1ccc2ccccc2c1 [Example 124, (S)-1-((2′-carbamoyl-[1,1′-biphenyl]-3-yl)methyl)-N-(1-(naphthalene-2-yl)ethyl)-1,2,3,4-tetrahydroquinoline-6-carboxamide], the “Binding assay (1 μLM)” value is reported as “++++”.
Cc1ccc([C@H](C)NC(=O)c2ccc3c(c2)CCCN3Cc2cccc(-c3ccccc3C(N)=O)c2)cc1F [Example 125, (S)-1-((2′-carbamoyl-[1,1′-biphenyl]-3-yl)methyl)-N-(1-(3-fluoro-4-methylphenyl)ethyl)-1,2,3,4-tetrahydroquinoline-6-carboxamide] was tested, and the “Binding assay (1 μLM)” value was “+++”.
For C[C@H](NC(=O)c1ccc2c(c1)CCCN2Cc1cccc(-c2ccccc2C(=O)O)c1F)c1ccccc1 [Example 126, (S)-2′-fluoro-3′-((6-((1-phenylethyl)carbamoyl)-3,4-dihydroquinoline-1(2H)-yl)methyl)-[1,1′-biphenyl]-2-carboxylic acid], the “Binding assay (1 μLM)” value was “+++”.
With C[C@H](NC(=O)c1ccc2c(c1)CCCN2Cc1cccc(-c2ccccc2C(N)=O)c1F)c1ccccc1 [Example 127, (S)-1-((2′-carbamoyl-2-fluoro-[1,1′-biphenyl]-3-yl)methyl)-N-(1-phenylethyl)-1,2,3,4-tetrahydroquinoline-6-carboxamide] the “Binding assay (1 μLM)” value was “+++”.
With C[C@H](NC(=O)c1ccc2c(c1)CCCN2Cc1cccc(-c2ccccc2C(=O)O)c1F)c1ccc([N+](=O)[O-])cc1 [Example 128, (S)-2′-fluoro-3′-((6-((1-(4-nitrophenyl)ethyl)carbamoyl)-3,4-dihydroquinoline-1(2H)-yl)methyl)-[1,1′-biphenyl]-2-caboxylic acid] the “Binding assay (1 μLM)” value was “++”.
In the case of C[C@H](NC(=O)c1ccc2c(c1)CCCN2Cc1cccc(-c2ccccc2C(=O)O)c1F)c1ccc2ccccc2c1 [Example 129, (S)-2′-fluoro-3′-((6-((1-(naphthalene-2-yl)ethyl)carbamoyl)-3,4-dihydroquinoline-1(28)-yl)methyl)-[1,1′-biphenyl]-2-carboxylic acid], the “Binding assay (1 μLM)” value is reported as “++++”.
For Cc1ccc([C@H](C)NC(=O)c2ccc3c(c2)CCCN3Cc2cccc(-c3ccccc3C(=O)O)c2F)cc1F [Example 130, (S)-2′-fluoro-3′-((6-((1-(3-fluoro-4-methylphenyl)ethyl)carbamoyl)-3,4-dihydroquinoline-1(2H)-yl)methyl)-[1,1′-biphenyl]-2-caboxylic acid], the “Binding assay (1 μLM)” value was “+++”.
